{"source": "patent US6867186B2", "about": "“Cell-permeable protein inhibitors of calpain” (New England Medical Center Hospital, priority 1997, dated 2005)", "key": {"platelets [1]": {"system": "platelets", "test": "cells", "design": "increase in P-selectin surface expression over unstimulated: dose or concentration left out as unconfirmed", "protocol": "To determine whether S-TIPPEYIN could inhibit α-granule secretion in platelets, surface expression of P-selectin, which indicates α-granule secretion, was induced with the thrombin peptide SFLLR (SEQ ID NO:5) and analyzed by flow cytometry using an antibody against P-selectin. Blood from healthy volunteers was collected into sodium citrate (4% w/v) and centrifuged at 200×g for 10 minutes to prepare platelet-rich plasma (PRP), from which platelets were subsequently purified by gel filtration using a SEPHAROSE 2B column in PIPES buffer. Twenty μl of platelets (approximately 2×10^8 platelets/ml) were aliquoted into eppendorf tubes and one μl of S-TIPPEYIN, TIPPEYIN (lacking the signal peptide sequence), or S-TIPPEY-ala was added to achieve final concentrations of 6.25, 12.5, 25, 50, or 100 μM. The platelets were then incubated for 2 hours at 37° C. and subsequently exposed to either 1 μl PBS (unstimulated) or 1 μl of SFLLR (SEQ ID NO:5; stimulated) at the indicated concentration. After 30 seconds, a 7.5 μl aliquot was transferred to an eppendorf tube containing non-immune serum having antibodies that were conjugated to phycoerythrin. Following a 20 minute incubation at room temperature, the mixture was diluted with 1 ml of 2% paraformaldehyde and incubated at 4° C. for two hours. Antibody binding to platelet surface P-selectin was quantified using a FACSCAN flow cytometer (Becton Dickerson, San Jose, Calif.). Results were reported as the geometric mean of the relative fluorescence.\nPlatelets were pre-incubated with increasing concentrations of calpeptin, MDL, E64d, or DMSO (vehicle control) for ten minutes prior to stimulation with SFLLR."}, "μ-calpain": {"molecular_target": "T1, μ-calpain (Sus scrofa, UniProt P35750)", "T1 construct": "pure p-calpain (porcine erythrocyte) was obtained from Chemicon; purchased Chemicon; host or cells: porcine erythrocyte", "T1 sequence (P35750 1-714)": "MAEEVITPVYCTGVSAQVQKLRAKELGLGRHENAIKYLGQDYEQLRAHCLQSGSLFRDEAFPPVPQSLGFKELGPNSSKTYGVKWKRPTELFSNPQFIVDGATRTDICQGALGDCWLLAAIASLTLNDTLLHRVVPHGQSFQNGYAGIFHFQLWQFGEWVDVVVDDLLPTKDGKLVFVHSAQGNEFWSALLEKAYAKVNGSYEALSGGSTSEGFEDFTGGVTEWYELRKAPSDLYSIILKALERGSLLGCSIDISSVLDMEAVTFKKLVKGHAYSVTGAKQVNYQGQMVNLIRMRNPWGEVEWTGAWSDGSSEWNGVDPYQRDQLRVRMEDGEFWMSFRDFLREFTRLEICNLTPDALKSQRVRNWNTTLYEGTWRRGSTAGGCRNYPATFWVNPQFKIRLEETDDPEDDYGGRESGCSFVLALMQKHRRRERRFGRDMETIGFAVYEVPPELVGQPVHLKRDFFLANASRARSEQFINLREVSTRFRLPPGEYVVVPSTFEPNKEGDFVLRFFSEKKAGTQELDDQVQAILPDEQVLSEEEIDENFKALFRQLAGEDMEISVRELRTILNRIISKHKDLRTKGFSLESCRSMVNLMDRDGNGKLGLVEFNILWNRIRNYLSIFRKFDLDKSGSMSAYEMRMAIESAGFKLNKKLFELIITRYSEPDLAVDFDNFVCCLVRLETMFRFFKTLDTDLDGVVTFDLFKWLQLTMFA", "T1 sequence (P04574 1-266 partner)": "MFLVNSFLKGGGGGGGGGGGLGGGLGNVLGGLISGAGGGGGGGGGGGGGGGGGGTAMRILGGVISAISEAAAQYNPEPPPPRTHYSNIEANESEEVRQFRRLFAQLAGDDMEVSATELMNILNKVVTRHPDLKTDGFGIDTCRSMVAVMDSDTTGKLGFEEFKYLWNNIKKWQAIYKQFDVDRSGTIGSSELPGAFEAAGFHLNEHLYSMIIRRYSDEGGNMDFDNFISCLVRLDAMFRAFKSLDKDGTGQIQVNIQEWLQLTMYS", "test": "Fluorometric calpain assay, suc-LLVY-AMC substrate", "assay_type": "biochemical, porcine", "from_the_text": "Unless otherwise noted, the materials used in the studies described below were obtained from commercial suppliers. Sepharose 2B was obtained from Pharmacia Biotech (Upsala, Sweden); pure p-calpain (porcine erythrocyte) was obtained from Chemicon; succinyl-LLVY-AMC (SEQ ID NO:7) was obtained from Bachem; A23187 was obtained from LC Labs; human alpha-thrombin was obtained from Hematologic Technologies (Essex Junction, VT); anti-P-selectin antibodies conjugated to phycoerythrin were obtained from Becton Dickinson (San Jose, Calif.); Oregon Green-phalloidin was obtained from Molecular Probes (Eugene, Oreg.). All other chemicals were ACS grade or better and were obtained from Sigma Chemical Company (St. Louis, Mo.).\nTo assess the ability of calpastat to inhibit calpain activity, a fluorometric calpain assay was performed. The assay determined specific peptidyl hydrolysis of the peptidyl 7-amino bond of suc-LLVY-AMC (SEQ ID NO:7) by calpain.\nThe assay was performed in a 0.5 ml reaction volume at 37° C. The reaction buffer contained 50 mM KC1, 10 mM Tris-HCl (pH 7.5), 1 mM EDTA, and 1 mM DTT. Two hundred μM suc-LLVY-AMC (SEQ ID NO:7) was added along with 5 mM CaCl2. Calpastat or S-TIPPEY-ala was then added at the given concentrations (FIG. 9). […] The initial rate of AMC production was measured by fluorimetry for the first few minutes. […]"}, "platelets [2]": {"system": "platelets", "test": "cells", "assay_type": "cell-based", "design": "reduction in spreading on the glass surface: dose or concentration left out as unconfirmed", "protocol": "Platelet activation on surfaces can be inhibited by […] or […] fusion proteins. […] The cellular area of spread platelets was determined by computer assisted image analysis using NIH Image 1.61. […] Percent inhibition of spreading was calculated from the increase in mean cell area for untreated and treated samples vs. unspread DMSO controls."}}, "note": "“Also recorded” adds a separate entry of the source. Read-outs that look alike come from different tables or passages of the source.", "data": [{"substance": "AAVALLPAVLLALLAPEKLAERADAAAPEAAELLEKKTGV [Calpastat-ala]", "values": [{"measurement": "effect on SFLLR-induced P-selectin surface expression", "setting": "platelets [1]; pre-incubation, SFLLR stimulation", "value": "no effect"}, {"measurement": "inhibition of purified μ-calpain", "setting": "μ-calpain; up to 10 μM, listed as S-TIPPEY-ala", "value": "no inhibitory activity; also recorded: no inhibition"}, {"measurement": "effect on platelet spreading", "setting": "platelets [2]; spreading on glass", "value": "minimal inhibition"}, {"measurement": "IC50", "setting": "platelets [2]; spreading on glass, NI=no inhibition, read-out: IC50, inhibition of platelet spreading", "value": "> 100", "unit": "µM"}]}, {"substance": "H-AAVALLPAVLLALLAPEKLGERDDTIPPEYRELLEKKTGV-OH [Calpastat]", "values": [{"measurement": "IC50", "setting": "platelets [1]", "value": 30, "unit": "µM"}, {"measurement": "P-selectin surface expression induced by ionophore A23187", "setting": "platelets [1]; A23187", "value": "inhibited"}, {"measurement": "maximal inhibition of P-selectin surface expression", "setting": "platelets [1]; FIG. 3, SFLLR", "value": "40 to 60", "unit": "µM"}, {"measurement": "increase in P-selectin surface expression over unstimulated", "setting": "platelets [1]; SFLLR alone approximately 10-fold", "value": 5, "unit": "fold"}, {"measurement": "IC50", "setting": "platelets [1]; read-out: half-maximal inhibition of P-selectin surface expression, FIG. 3, SFLLR", "value": "15 to 20", "unit": "µM"}, {"measurement": "IC50", "setting": "μ-calpain; 70 nM enzyme, 37° C., read-out: IC50, μ-calpain cleavage of suc-LLVY-AMC", "value": 50, "unit": "nM"}, {"measurement": "IC50", "setting": "platelets [2]", "value": 35, "unit": "µM"}, {"measurement": "inhibition of platelet spreading relative to calpastat-ala control", "setting": "platelets [2]; 100 μM, 30 minutes pre-incubation", "value": 0, "unit": "%"}, {"measurement": "inhibition of platelet spreading relative to calpastat-ala control", "setting": "platelets [2]; 100 μM, 60 minutes pre-incubation", "value": 46, "unit": "%"}, {"measurement": "platelets round and unspread on glass", "setting": "platelets [2]; 100 μM, 1.5 hours", "value": "Half"}, {"measurement": "inhibition of platelet spreading relative to calpastat-ala control", "setting": "platelets [2]; 100 μM, 90 minutes pre-incubation", "value": 80, "unit": "%"}, {"measurement": "reduction in spreading on the glass surface", "setting": "platelets [2]; 90 minutes at 37° C.", "value": 70, "unit": "%"}]}]}
